Converted amounts (≈) assume the structure as drawn.

Series [1] concerns Control strain L. plantarum DSM 21380. The series can be described thus: Antibiotic resistance, E-test MIC, control strain. It counts as cell-based, Lactobacillus plantarum. Conditions: for MIC: Lactiplantibacillus plantarum, DSM21380, E-test strips, read-out: MIC (minimal inhibitory concentration); for MIC (minimal inhibitory concentration): E-test strips.
For series [2], the system named is Lactobacillus plantarum Inducia DSM 21379. The series can be described thus: Antibiotic resistance, E-test MIC. It counts as cell-based. The note with it: for MIC: Lactiplantibacillus plantarum, DSM21379, read-out: MIC (minimal inhibitory concentration); for MIC (minimal inhibitory concentration): E-test strips, L. plantarum Inducia DSM 21379. As for the experimental part: Method. Lactobacillus plantarum Inducia DSM 21379 was tested using antibiotic strips of the E-test (AB Biodisk, Solna).

For series [3] the following is noted: in vivo, po; cited from earlier work.

As to `O=C(N[C@H](CO)[C@H](O)c1ccc([N+](=O)[O-])cc1)C(Cl)Cl` [Chloramphenicol], the MIC in series [1] and in series [2] was 2 µg/mL (≈ 6.19 µM) in each case. On to Cipro/ofloxacin, for which the “MIC (minimal inhibitory concentration)” value in series [1] and in series [2] was 32 µg/mL throughout. For `CC[C@H]1OC(=O)[C@H](C)[C@@H](O[C@H]2C[C@@](C)(OC)[C@@H](O)[C@H](C)O2)[C@H](C)[C@@H](O[C@@H]2O[C@H](C)C[C@H](N(C)C)[C@H]2O)[C@](C)(O)C[C@@H](C)C(=O)[C@H](C)[C@@H](O)[C@]1(C)O` [Erytromycin], the “MIC (minimal inhibitory concentration)” value in series [1] was found to be 0.19 µg/mL (≈ 0.259 µM); in series [2], 0.25 µg/mL (≈ 0.341 µM). Turning to `CCC[C@@H]1C[C@@H](C(=O)N[C@@H]([C@H]2O[C@H](SC)[C@H](O)[C@@H](O)[C@H]2O)[C@H](C)Cl)N(C)C1` [Clindamycin], the MIC in series [1] amounted to 0.032 µg/mL (≈ 0.0753 µM); in series [2], 0.016 µg/mL (≈ 0.0376 µM). As to `[H]/N=C(/N)N[C@H]1[C@H](O)[C@@H](O)[C@H](O[C@@H]2O[C@@H](C)[C@](O)(C=O)[C@H]2O[C@@H]2O[C@@H](CO)[C@H](O)[C@@H](O)[C@@H]2NC)[C@@H](N/C(N)=N\[H])[C@@H]1O` [Streptomycin], the MIC came out at 16 µg/mL (≈ 27.5 µM) in series [1] and 6 µg/mL (≈ 10.3 µM) in series [2]. The like results for `CN(C)[C@@H]1C(O)=C(C(N)=O)C(=O)[C@@]2(O)C(O)=C3C(=O)c4c(O)cccc4[C@@](C)(O)[C@H]3C[C@@H]12` [Tetracycline] were, in that order, 8 µg/mL (≈ 18 µM) and 6 µg/mL (≈ 13.5 µM). Gentamicin: the “MIC (minimal inhibitory concentration)” value in series [1] amounted to 1.5 µg/mL; in series [2] it was 1 µg/mL. For `NCCCCN` [Putrescine], in series [3], the “consumed amount absorbed from intestine into bloodstream” value was 20%. `CC1(C)S[C@@H]2[C@H](NC(=O)[C@H](N)c3ccccc3)C(=O)N2[C@H]1C(=O)O` [Ampicillin]: the MIC came out at 0.25 µg/mL (≈ 0.715 µM) in series [1] and 0.19 µg/mL (≈ 0.544 µM) in series [2].

These data come from patent US20110274789A1, “ISOLATED LACTOBACILLUS PLANTARUM STRAIN INDUCIA DSM 21379 AS PROBIOTIC THAT ENHANCES NATURAL IMMUNITY AND FOOD PRODUCTS AND MEDICINAL PREPARATIONS COMPRISING IT” (priority 2008, published 2011).
